Structures can show the parent of a compound that is named as a salt. Where only a bound is given, the exact number is not on record here.

In this assay the target is T1, human recombinant KDM1A (LSD1)/CoRest (Homo sapiens, UniProt O60341).
T1 construct: made in house; host or cells: E. coli
Put plainly: Assay of enzyme inhibition of KDM1A (LSD1), Amplex UltraRed/peroxidase coupled. In kind it is biochemical. The following applies: 15 min preincubation, 4.5 μM mono-methylated H3-K4 peptide, range classes, read-out: IC50 [μM], KDM1A inhibition assay. On the procedure:
The experiments were performed using a mono-methylated H3-K4 peptide containing 21 amino acids (custom synthesis done by Thermo Scientific) as substrate and in a 50 mM TRIS, pH 8, 0.05 mg/ml BSA buffer.
The demethylase activity was estimated under aerobic conditions and at RT by measuring the release of H2O2 produced during the catalytic process by the Amplex® UltraRed detection system coupled with peroxidase assay. Briefly, a fixed amount of KDM1A/CoRest complex was incubated at RT for 15 minutes in the absence and/or the presence of various concentrations of inhibitor (e.g. from 0 to 100 μM, depending on the inhibitor strength) and of Amplex® UltraRed detection system coupled with peroxidase assay. The inhibitors were tested twice in duplicates at each concentration. […] The conversion of the Amplex® Ultra Red reagent to resorufin was monitored in continuous by fluorescence (excitation at 540 nm, emission at 590 nm) using a microplate reader (Infinite 200, Tecan). Arbitrary units were used to measure the level of H2O2 produced in the absence and/or in the presence of inhibition. The maximum demethylase activity of KDM1A/CoRest was obtained in the absence of inhibitors and corrected for background fluorescence in the absence of KDM1A/CoRest. The IC50 was calculated using GraphPad Software.

For orientation: IC50 means the midpoint of a concentration-inhibition curve. Consider `CC[C@@]1(N)C[C@H]1c1ccc(NC(=O)Cc2cccc3ccccc23)c(F)c1` (relative stereo) [Example A-94, N-[4-[trans-2-amino-2-ethyl-cyclopropyl]-2-fluoro-phenyl]-2-(1-naphthyl) acetamide hydrochloride], for which the IC50 was under 0.1 µM.
Next, `CC[C@@]1(N)C[C@H]1c1ccc(NC(=O)c2ccc(N3CCN(C)CC3)cc2)c(F)c1` (relative stereo) [Example A-96, N-[4-[trans-2-amino-2-ethyl-cyclopropyl]-2-fluoro-phenyl]-4-(4-methylpiperazin-1-yl)benzamide 2,2,2-trifluoroacetic acid]: 0.1 to 1 µM; `CC[C@@]1(N)C[C@H]1c1ccc(NC(=O)c2ccc(C3CCN(C)CC3)cc2)cc1` (relative stereo) [Example A-100, N-[4-[trans-2-amino-2-ethyl-cyclopropyl]phenyl]-4-(1-methyl-4-piperidyl)benzamide 2,2,2-trifluoroacetic acid]: under 0.1 µM.
Under `CC[C@@]1(N)C[C@H]1c1ccc(NC(=O)c2ccc(-c3ccncc3)cc2)cc1` (relative stereo) [Example A-102, N-[4-(trans-2-amino-2-ethyl-cyclopropyl]phenyl)-4-(4-pyridyl) benzamide dihydrochloride] stands under 0.1 µM; under `N[C@]1(c2ccccc2)C[C@H]1c1ccc(NC(=O)c2cccc(Cl)c2)cc1` (relative stereo) [Example A-103, N-[4-(trans-2-amino-2-phenyl-cyclopropyl]phenyl]-3-chloro-benzamide hydrochloride], under 0.1 µM.
Under `N[C@]1(c2ccccc2)C[C@H]1c1ccc(NC(=O)Cc2cccc3ccccc23)cc1` (relative stereo) [Example A-104, N-[4-(trans-2-amino-2-phenyl-cyclopropyl)phenyl]-2-(1-naphthyl) acetamide hydrochloride] stands under 0.1 µM; under `N[C@]1(c2ccccc2)C[C@H]1c1ccc(NC(=O)Cc2ccccc2)cc1` (relative stereo) [Example A-105, N-[4-(trans-2-amino-2-phenyl-cyclopropyl)phenyl]-2-phenyl-acetamide hydrochloride], under 0.1 µM; under `N[C@]1(c2ccccc2)C[C@H]1c1ccc(NC(=O)c2cccc(-c3ccccc3)c2)cc1` (relative stereo) [Example A-106, N-[4-(trans-2-amino-2-phenyl-cyclopropyl)phenyl]-3-phenyl-benzamide 2,2,2-trifluoroacetic acid], under 0.1 µM.
On to `N[C@]1(c2ccccc2)C[C@H]1c1ccc(NC(=O)Cc2ccc3ccccc3c2)cc1` (relative stereo) [Example A-107, N-[4-(trans-2-amino-2-phenyl-cyclopropyl)phenyl]-2-(2-naphthyl) acetamide 2,2,2-trifluoroacetic acid], for which the IC50 is under 0.1 µM.
Under `N[C@]1(c2ccccc2)C[C@H]1c1ccc(NC(=O)c2ccncc2)cc1` (relative stereo) [Example A-108, N-[4-(trans-2-amino-2-phenyl-ccyclopropyl)phenyl] pyridine-4-carboxamide dihydrochloride] stands under 0.1 µM; under `CN1CCC(c2ccc(C(=O)Nc3ccc([C@@H]4C[C@]4(N)c4ccccc4)cc3)cc2)CC1` (relative stereo) [Example A-109, N-[4-(trans-2-amino-2-phenyl-cyclopropyl]phenyl)-4-(1-methyl-4-piperidyl) benzamide dihydrochloride], under 0.1 µM; under `CN1CCN(c2ccc(C(=O)Nc3ccc([C@@H]4C[C@]4(N)c4ccccc4)cc3)cc2)CC1` (relative stereo) [Example A-110, N-[4-(trans-2-amino-2-phenyl-cyclopropyl)phenyl]-4-(4-methylpiperazin-1-yl)benzamide hydrochloride], under 0.1 µM.
Under `N[C@]1(c2ccccc2)C[C@H]1c1ccc(NC(=O)c2cccc(N3CCOC3=O)c2)cc1` (relative stereo) [Example A-111, N-[4-(trans-2-amino-2-phenyl-cyclopropyl)phenyl]-3-(2-oxooxazolidin-3-yl)benzamide hydrochloride] stands under 0.1 µM.
Next, `N[C@]1(CCc2ccccc2)C[C@H]1c1ccc(NC(=O)c2ccncc2)cc1` (relative stereo) [Example A-112, N-[4-(trans-2-amino-2-phenethyl-cyclopropyl)phenyl] pyridine-4-carboxamide hydrochloride]: under 0.1 µM; `CC[C@@]1(N)C[C@H]1c1ccc(NC(=O)c2ccc(NCCO)cc2)cc1` (relative stereo) [Example A-120, N-[4-(trans-2-amino-2-ethyl-cyclopropyl]phenyl)-4-(2-hydroxyethylamino)benzamide hydrochloride]: 0.1 to 1 µM; `CC[C@@]1(N)C[C@H]1c1ccccc1-n1cc(-c2ccccc2)nn1` (relative stereo) [Example A-125, trans 1-ethyl-2-[2-(4-phenyltriazol-1-yl)phenyl]cyclopropan amine hydrochloride]: 0.1 to 1 µM.
As to `COc1cccc([C@@H]2C[C@]2(N)Cc2ccccc2)c1` (relative stereo) [Example A-129, trans 1-Benzyl-2-(3-methoxyphenyl)cyclopropanamine hydrochloride], the IC50 is 0.1 to 1 µM.
Under `CC[C@@]1(N)C[C@H]1c1cccc(N2CCN(c3ccccc3)C2=O)c1` (relative stereo) [Example A-130, 1-[3-[(trans-2-amino-2-ethyl-cyclopropyl]phenyl]-3-phenyl-imidazolidin-2-one hydrochloride] stands 0.1 to 1 µM; under `CC[C@@]1(N)C[C@H]1c1ccc(-n2cc(-c3ccccc3)nn2)cc1` (relative stereo) [Example A-131, trans-1-Ethyl-2-[4-(4-phenyltriazol-1-yl)phenyl]cyclopropanamine hydrochloride], under 0.1 µM; under `N[C@]1(CNC2CC2)C[C@H]1c1ccccc1` (relative stereo) [Example B-4, trans 1-[(cyclopropylamino)methyl]-2-phenyl-cyclopropanamine dihydrochloride], 1 to 5 µM.
Consider `CN1CCN(C[C@@]2(N)C[C@H]2c2ccccc2)CC1` (relative stereo) [Example B-5, trans-1-[(4-methylpiperazine-1-yl)methyl]-2-phenyl-cyclopropanamine trihydrochloride], for which the IC50 lay within 1 to 5 µM.
In the case of `CC[C@@]1(NCC(=O)N2CCN(C)CC2)C[C@H]1c1ccccc1` (relative stereo) [Example C-6, trans-2-[[(1-ethyl-2-phenyl-cyclopropyl]amino]-1-(1-methylpiperazin-1-yl)ethanone trifluoroacetate], the IC50 is 0.1 to 1 µM.
Under `CC[C@@]1(NCc2ccccc2)C[C@H]1c1ccccc1` (relative stereo) [Example C-13, trans-N-benzyl-1-ethyl-2-phenyl-cyclopropanamine hydrochloride] stands 1 to 5 µM; under `C[C@@]1(NCc2cnc(N)nc2)C[C@H]1c1ccccc1` (relative stereo) [Example C-19, 5-{[(trans-1-methyl-2-phenyl-cyclopropyl)amino]methyl} pyrimidin-2-amine dihydrochloride], 0.1 to 1 µM; under `COc1ncccc1CN[C@]1(C)C[C@H]1c1ccccc1` (relative stereo) [Example C-20, trans-N-[(2-methoxy-3-pyridyl)methyl]-1-methyl-2-phenyl-cyclopropanamine], 1 to 5 µM.
On to `C[C@@]1(NCc2ccc3c(c2)OCCO3)C[C@H]1c1ccccc1` (relative stereo) [Example C-21, trans-N-(2,3-dihydro-1,4-benzodioxin-6-ylmethyl)-1-methyl-2-phenyl-cyclopropanamine 2,2,2-trifluoroacetic acid], for which the half-inhibitory concentration (IC50) fell in the range of 0.1 to 1 µM.
Under `CN1CCN(C(=O)CN[C@]2(c3ccccc3)C[C@H]2c2ccccc2)CC1` (relative stereo) [Example C-23, 2-[[trans-1,2-diphenylcyclopropyl]amino]-1-(4-methylpiperazin-1-yl)ethanone dihydrochloride] stands 0.1 to 1 µM; under `CN1CCN(C(=O)CN[C@]2(C)C[C@H]2c2ccccc2)CC1` (relative stereo) [Example C-27, 2-[[trans-1-methyl-2-phenyl-cyclopropyl]amino]-1-(4-methylpiperazin-1-yl)ethanone dihydrochloride], under 0.1 µM; under `CN1CCN(C(=O)CN[C@@]2(C)C[C@H]2c2ccccc2)CC1` (relative stereo) [Example C-28, 2-[[cis-1-methyl-2-phenyl-cyclopropyl]amino]-1-(4-methylpiperazin-1-yl)ethanone dihydrochloride], 1 to 5 µM.
Next, `CN[C@]1(C)C[C@H]1c1ccccc1` (relative stereo) [Example C-29, trans-N,1-dimethyl-2-phenyl-cyclopropanamine hydrochloride]: 1 to 5 µM; `CC[C@@]1(NCCN2CCCCC2)C[C@H]1c1ccccc1` (relative stereo) [Example C-31, trans-1-Ethyl-2-phenyl-N-[2-(1-piperidyl)ethyl]cyclopropanamine dihydrochloride]: 0.1 to 1 µM.
